{"source": "paper PMC5840523", "about": "“Assessment of a pretomanid analogue library for African trypanosomiasis: Hit-to-lead studies on 6-substituted 2-nitro-6,7-dihydro-5H-imidazo[2,1-b][1,3]thiazine 8-oxides” (Bioorganic & Medicinal Chemistry Letters, 2018)", "key": {"T. b. brucei (TREU 667) [1]": {"tested_on": "T. b. brucei (TREU 667)", "conditions": "cited from earlier work"}, "T. b. brucei 427 [2]": {"tested_on": "T. b. brucei 427", "assay": "T. b. brucei 427 growth inhibition (Scynexis)", "type": "cell-based, Trypanosoma brucei brucei"}, "L929 mouse fibroblasts": {"tested_on": "L929 mouse fibroblasts", "assay": "Cytotoxicity toward L929 mouse fibroblasts (Scynexis)", "type": "cell-based"}, "[3]": {"assay": "Human liver microsomal stability", "type": "in vitro ADME", "conditions": "pooled human liver microsomes"}, "[4]": {"assay": "Mouse liver microsomal stability", "type": "in vitro ADME", "conditions": "CD-1 mouse liver microsomes"}, "T. b. brucei (EATRO 110)": {"tested_on": "T. b. brucei (EATRO 110)", "assay": "Acute (stage 1) HAT infection mouse model", "type": "in vivo, T. b. brucei; female Swiss Webster mice", "method": "Therefore, 24 was examined in a stage 1 HAT mouse model.[14] Briefly, dosing was orally once daily for four days, starting 24 h postinfection, and parasitemia was assessed weekly via tail vein blood smears (see the Supporting Information). Excellent activity was observed (Table 4), with 24 providing complete cures (i.e. parasite free blood smears after >30 days) to all mice at doses as low as 5 mg/kg, similar to the control drug pentamidine (given i.p. at 2 mg/kg), whereas the vehicle only mice died on day 7. […] Here, oral dosing of 24 (at 12.5 to 50 mg/kg once daily for seven days from day 21 postinfection) led to significant increases in survival times in comparison to untreated controls (66–70 days vs 31 days; Table 5), although cure rates were inadequate (0–20%). […]\nMouse Model f or Acu te HAT Inf ection. Compound 24 was tested for in vivo effi cac y against acute HAT infection caused b y T. b. brucei (EATRO 110 strain) at the Haskins Laboratories, Pace Universit y. […] Infected animals or th ose showing si gns of infectionwer e euthanized.Untreated infected contr ol animals died after 5-7 days; mice remaining parasite free for more than 30 da ys beyond the end of the tr eatment period w er e con sidered cur ed. […]"}, "T. b. brucei (TREU 667) [5]": {"tested_on": "T. b. brucei (TREU 667)", "assay": "CNS (stage 2, chronic) HAT infection mouse model", "type": "in vivo, T. b. brucei; female Swiss Webster mice", "method": "Therefore, 24 was examined in a stage 1 HAT mouse model.[14] Briefly, dosing was orally once daily for four days, starting 24 h postinfection, and parasitemia was assessed weekly via tail vein blood smears (see the Supporting Information). Excellent activity was observed (Table 4), with 24 providing complete cures (i.e. parasite free blood smears after >30 days) to all mice at doses as low as 5 mg/kg, similar to the control drug pentamidine (given i.p. at 2 mg/kg), whereas the vehicle only mice died on day 7. […]\nMouse Model for Chronic HAT Inf ection. Compound 24 was tested for in vi vo efficac y against chronic HAT infection caused b y T. b. brucei (TREU 667 strain) at the Haskin s Laboratories, Pace Universit y. […]\nsuspension formulation (0.8% CMC, 0.1% SDS in water) to groups of 8 or 10infected f emal e Swiss Webster mice, starting 21 d postinfection, according to a report ed method. 5 Animals remaining parasite free for more than 180 da ys beyond the end of the treatment period were […]"}, "T. b. brucei 427 [6]": {"tested_on": "T. b. brucei 427", "assay": "T. b. brucei growth inhibition (University of Antwerp)", "type": "cell-based, Trypanosoma brucei brucei", "conditions": "for IC50: T. b. brucei 427, mean of 2 to 5 determinations, read-out: IC50 T. b. bruc"}, "T. b. rhodesiense": {"tested_on": "T. b. rhodesiense", "assay": "T. b. rhodesiense growth inhibition (University of Antwerp)", "type": "cell-based, Trypanosoma brucei rhodesiense", "conditions": "for IC50: mean of 2 to 5 determinations, read-out: IC50 T. b. rhod"}, "Trypanosoma cruzi": {"tested_on": "Trypanosoma cruzi", "assay": "T. cruzi growth inhibition (University of Antwerp)", "type": "cell-based", "conditions": "mean of 2 to 5 determinations"}, "Leishmania infantum": {"tested_on": "Leishmania infantum", "assay": "L. infantum growth inhibition (University of Antwerp)", "type": "cell-based", "conditions": "mean of 2 to 5 determinations"}, "[7]": {"tested_on": "human lung fibroblasts (MRC-5 cells)", "assay": "Cytotoxicity toward MRC-5 cells (University of Antwerp)", "type": "cell-based"}, "[8]": {"assay": "Kinetic solubility in water or 0.1 M HCl (ACSRC)", "type": "physicochemical", "conditions": "read-out: aqueous solubility"}, "in vitro": {"assay": "in vitro", "conditions": "dog, MDCK-MDR1"}, "[9]": {"conditions": "1.25 mg/kg orally once daily for 4 days"}, "[10]": {"conditions": "2.5 mg/kg orally once daily for 4 days"}, "[11]": {"conditions": "5 mg/kg orally once daily for 4 days"}, "[12]": {"conditions": "12.5 mg/kg orally once daily for 4 days"}, "[13]": {"conditions": "25 mg/kg orally once daily for 4 days"}, "[14]": {"conditions": "50 mg/kg orally once daily for 4 days"}, "[15]": {"conditions": "12.5 mg/kg orally once daily for 7 d from day 21 postinfection"}, "[16]": {"conditions": "25 mg/kg orally once daily for 7 d from day 21 postinfection"}, "[17]": {"conditions": "50 mg/kg orally once daily for 7 d from day 21 postinfection"}}, "note": "Like-named read-outs stand apart in the source and are kept apart here."}
{"molecule": "CC1(C)OB(O)c2cc(NC(=O)c3ccc(F)cc3C(F)(F)F)ccc21", "note": "[Compound 5]", "values": [{"measurement": "cure rate", "setting": "T. b. brucei (TREU 667) [1]; same CNS model, 25 mg/kg once daily for 7 days", "result": 100, "unit": "%"}]}
{"molecule": "O=[N+]([O-])c1cn2c(n1)[S@+]([O-])C[C@@H](OCc1ccc(OC(F)(F)F)cc1)C2", "note": "[Compound 24]", "values": [{"measurement": "Selectivity Index", "setting": "T. b. brucei 427 [2]; L929 vs T. b. brucei", "result": "> 143"}, {"measurement": "potency relative to (6R) enantiomer 26 (fold more potent)", "setting": "T. b. brucei 427 [2]; T. b. brucei", "result": "more than 70 fold"}, {"measurement": "potency relative to cis isomer 25 (fold more potent)", "setting": "T. b. brucei 427 [2]; T. b. brucei", "result": 40, "unit": "fold"}, {"measurement": "IC50", "setting": "T. b. brucei 427 [2]; Trypanosoma brucei, growth inhibition of T. b. brucei 427, mean ± SD", "result": "0.07 ± 0.005", "unit": "µg/mL"}, {"measurement": "IC50", "setting": "L929 mouse fibroblasts", "result": "> 10", "unit": "µg/mL"}, {"measurement": "remaining at 1 h", "setting": "[3]", "result": 82, "unit": "%"}, {"measurement": "remaining at 1 h", "setting": "[4]", "result": 96, "unit": "%"}, {"measurement": "Cured", "setting": "T. b. brucei (EATRO 110); [9]", "result": 0, "unit": "%"}, {"measurement": "Cured/Total", "setting": "T. b. brucei (EATRO 110); [9]", "result": "0/4"}, {"measurement": "Mean survival", "setting": "T. b. brucei (EATRO 110); [9]", "result": 7.5, "unit": "days"}, {"measurement": "Cured", "setting": "T. b. brucei (EATRO 110); [10]", "result": 25, "unit": "%"}, {"measurement": "Cured/Total", "setting": "T. b. brucei (EATRO 110); [10]", "result": "1/4"}, {"measurement": "Mean survival", "setting": "T. b. brucei (EATRO 110); [10]", "result": 13, "unit": "days"}, {"measurement": "Cured", "setting": "T. b. brucei (EATRO 110); [11]", "result": 100, "unit": "%"}, {"measurement": "Cured/Total", "setting": "T. b. brucei (EATRO 110); [11]", "result": "4/4"}, {"measurement": "Mean survival", "setting": "T. b. brucei (EATRO 110); [11]", "result": ">30", "unit": "days"}, {"measurement": "Cured", "setting": "T. b. brucei (EATRO 110); [12]", "result": 100, "unit": "%"}, {"measurement": "Cured/Total", "setting": "T. b. brucei (EATRO 110); [12]", "result": "5/5"}, {"measurement": "Mean survival", "setting": "T. b. brucei (EATRO 110); [12]", "result": ">30", "unit": "days"}, {"measurement": "Cured", "setting": "T. b. brucei (EATRO 110); [13]", "result": 100, "unit": "%"}, {"measurement": "Cured/Total", "setting": "T. b. brucei (EATRO 110); [13]", "result": "5/5"}, {"measurement": "Mean survival", "setting": "T. b. brucei (EATRO 110); [13]", "result": ">30", "unit": "days"}, {"measurement": "Cured", "setting": "T. b. brucei (EATRO 110); [14]", "result": 100, "unit": "%"}, {"measurement": "Cured/Total", "setting": "T. b. brucei (EATRO 110); [14]", "result": "5/5"}, {"measurement": "Mean survival", "setting": "T. b. brucei (EATRO 110); [14]", "result": ">30", "unit": "days"}, {"measurement": "lowest dose providing complete cures to all mice", "setting": "T. b. brucei (EATRO 110); orally once daily for four days", "result": 5, "unit": "mg/kg"}, {"measurement": "efficacy relative to results described for fexinidazole (4) (fold superior)", "setting": "T. b. brucei (EATRO 110); stage 1 HAT mouse model", "result": "~20", "unit": "fold"}, {"measurement": "Cured", "setting": "T. b. brucei (TREU 667) [5]; [15]", "result": 0, "unit": "%"}, {"measurement": "Cured/Total", "setting": "T. b. brucei (TREU 667) [5]; [15]", "result": "0/8"}, {"measurement": "Mean relapse time", "setting": "T. b. brucei (TREU 667) [5]; [15]", "result": 45, "unit": "days"}, {"measurement": "Cured", "setting": "T. b. brucei (TREU 667) [5]; [16]", "result": 20, "unit": "%"}, {"measurement": "Cured/Total", "setting": "T. b. brucei (TREU 667) [5]; [16]", "result": "2/10"}, {"measurement": "Mean relapse time", "setting": "T. b. brucei (TREU 667) [5]; [16]", "result": 70, "unit": "days"}, {"measurement": "Cured", "setting": "T. b. brucei (TREU 667) [5]; [17]", "result": 0, "unit": "%"}, {"measurement": "Cured/Total", "setting": "T. b. brucei (TREU 667) [5]; [17]", "result": "0/10"}, {"measurement": "Mean relapse time", "setting": "T. b. brucei (TREU 667) [5]; [17]", "result": 66, "unit": "days"}, {"measurement": "cure rates", "setting": "T. b. brucei (TREU 667) [5]; 12.5 to 50 mg/kg orally once daily for seven days from day 21", "result": "0–20%"}, {"measurement": "IC50", "setting": "T. b. brucei 427 [6]; Trypanosoma brucei", "result": 140, "unit": "nM"}, {"measurement": "IC50", "setting": "T. b. rhodesiense; Trypanosoma brucei, RHODESIENSE", "result": 130, "unit": "nM"}, {"measurement": "IC50", "setting": "Trypanosoma cruzi; Trypanosoma cruzi", "result": 1400, "unit": "nM"}, {"measurement": "IC50", "setting": "Leishmania infantum; Leishmania infantum", "result": 10000, "unit": "nM"}, {"measurement": "IC50", "setting": "[7]; Homo sapiens, MRC5, cytotoxicity toward human lung fibroblasts", "result": 50000, "unit": "nM"}, {"measurement": "solubility at 15 min", "setting": "[8]; water", "result": 106, "unit": "µg/mL"}]}
{"molecule": "O=[N+]([O-])c1cn2c(n1)[S+]([O-])CC(OCc1ccc(-c3ccc(OC(F)(F)F)cc3)cn1)C2", "note": "(stereo not drawn) [Compound 35, 2-Nitro-6-({5-[4-(trifluoromethoxy)phenyl]pyridin-2-yl}methoxy)-6,7-dihydro-5H-imidazo[2,1-b][1,3]thiazine 8-oxide]", "values": [{"measurement": "remaining at 1 h", "setting": "[3]", "result": 78, "unit": "%"}, {"measurement": "remaining at 1 h", "setting": "[4]", "result": 72, "unit": "%"}, {"measurement": "potency against T. b. brucei relative to 12 (fold greater)", "setting": "T. b. brucei 427 [6]", "result": 9, "unit": "fold"}, {"measurement": "IC50", "setting": "T. b. brucei 427 [6]", "result": 30, "unit": "nM"}, {"measurement": "potency against T. b. rhodesiense relative to 12 (fold higher)", "setting": "T. b. rhodesiense", "result": 11, "unit": "fold"}, {"measurement": "IC50", "setting": "T. b. rhodesiense", "result": 23, "unit": "nM"}, {"measurement": "IC50", "setting": "Trypanosoma cruzi", "result": 67, "unit": "nM"}, {"measurement": "IC50", "setting": "Leishmania infantum", "result": 410, "unit": "nM"}, {"measurement": "selectivity index (MRC-5 IC50 / HAT IC50)", "setting": "[7]", "result": "> 500", "unit": "times"}, {"measurement": "selectivity index relative to 12 (fold better)", "setting": "[7]", "result": 2.4, "unit": "fold"}, {"measurement": "IC50", "setting": "[7]; cytotoxicity toward human lung fibroblasts", "result": 16000, "unit": "nM"}, {"measurement": "solubility at 15 min", "setting": "[8]; 0.1 M HCl, pH 1", "result": 1260, "unit": "µg/mL"}, {"measurement": "solubility at 15 min", "setting": "[8]; water, pH 7", "result": 9.9, "unit": "µg/mL"}, {"measurement": "Papp A→B at 150 min, 2 µM", "setting": "in vitro", "result": 11.7, "unit": "×10⁻⁶ cm/s"}, {"measurement": "Papp B→A at 150 min, 2 µM", "setting": "in vitro", "result": 18.2, "unit": "×10⁻⁶ cm/s"}]}
{"molecule": "O=C(Nc1ccc2c(c1)B(O)OC2)c1ccc(F)cc1C(F)(F)F", "note": "[SCYX-6759]", "values": [{"measurement": "cure rate of the CNS infection", "setting": "T. b. brucei (TREU 667) [1]; oral 50 mg/kg twice daily (b.i.d.)", "result": 83, "unit": "%"}]}
